Reference: patent US20020025298A1, “Use of texaphyrin in ocular diagnosis and therapy” (Pharmacyclics, Inc., priority 1996, published 2002)
Values joined by “and” are separate entries in the source; they are usually repeats but may differ in a detail not shown here. Equal entries are not always repeated. Where two headings read alike, the source gives them in different places.

Columns and labels:
[1] = cited from earlier work
[2] = system: rabbit plasma proteins and lipoproteins; experiment: In vivo binding to plasma proteins and lipoproteins, KBr density-gradient ultracentrifugation; conditions: for binding to plasma elements (in words): rabbit, in vivo
Description: (§1) Plasma Analysis. Rabbits were injected via the ear vein with 1 μmol Lu(III)T2BET/kg and blood was collected at 15 min, 30 min, 3 hr, and 5 hr post administration. EDTA was used as the anticoagulant. Plasma samples (25 μl) were mixed with 10 mM Triton X100 (3 ml) and analyzed by fluorescence. Fluorescence spectra were acquired with a SLM 48000S instrument, excitation was between 450-480 nm and emission monitored from 700-800 nm. In vivo binding of Lu(III)T2BET to rabbit plasma proteins and lipoproteins was assessed using KBr density-gradient ultracentrifugation to fractionate the protein/lipoprotein mixture, followed by fluorescence spectroscopy to determine the relative distribution of Lu(III)T2BET among the low-density lipoproteins (LDL), high-density lipoproteins (HDL), and heavy proteins.

[3] = cited from earlier work; remark: listed apart in the source
normal NZW rabbits = experiment: Fluorescence angiography in normal NZW rabbits with fundoscopy and H&E histology (safety); type: in vivo, rabbit; conditions: i.v. 1-10 μmol/kg, fluorescein and ICG angiography and H&E histology
Description: Fluorescence angiography comparing LuT2BET, fluorescein, and ICG was performed on normal NZW rabbits. Normal rabbits (n=4) received an intravenous injection of LuT2BET from 1-10 μmol/kg after intramuscular sedation and pupillary dilatation. Extensive fundoscopy was performed immediately and up to 2 hours post texaphyrin, fluorescein, or ICG administration. […] In further studies, vascular lesions including neovascularization was induced in albino rabbits (NZW) using photocoagulation. PDT using LuT2BET was carried out on the induced lesions. […] Therefore, selective accumulation of Lu(III)T2BET in areas of neovascularization should facilitate diagnosis and photodynamic therapy of age-related macular degeneration and other disorders related to abnormal vasculature.
Dyes. Lutetium texaphyrin, Lu(III)T2BET, was dissolved in 5% mannitol at a concentration of 2 mM. Indocyanine-green (ICG, Cardio-Gree^n®, Becton Dickinson and Company, Cockeysville, Md.) and fluorescein (Alcon Laboratories, Fort Worth, Tex.) fluorescent angiograms were performed at concentrations of 0.31 mg/kg and 7.5 mg/kg, respectively. […]
Photography. Fundus photography and fluorescence angiograms were performed with the TOPCON™50VT camera coupled to the Ophthalmic Imaging System (Ophthalmic Imaging System Inc., Sacramento, Calif.). […] ICG was excited at 790-805 nm and fluorescence detected at 835 nm. […]

[4] = Plasma analysis: plasma concentration by fluorescence; type: in vivo; conditions: rabbit, i.v. 1 μmol/kg
Description: as §1

[5] = system: induced vascular lesions of the eye; experiment: Photodynamic therapy of induced vascular lesions of the eye; type: in vivo; conditions: rabbit
Description: Induction of Neovascularization. Photocoagulation bums were introduced in the right macular retina of seven rabbits with an argon dye laser (Coherent Inc., Palo Alto, Calif.). On average, five lesions were induced with 577 nm light using a spot size of 50 μm using enough power (typically 450 mW) to cause bleeding into the retina. The eyes were photographed immediately after photocoagulation. Fluorescein and ICG angiograms were performed 11-15 days after photocoagulation. […] Four control animals, having no induced lesions, were given fluorescence angiograms with the respective dyes.
PDT Protocol. Animals received Lu(III)T2BET, 30 minutes post injection laser light at 488 nm, spot size of 1000 μm, was directed to each lesion via a slitlamp system. Fluorescein angiography was performed throughout the procedure, from prior to until after PDT.
Thirty minutes after injection with LuT2BET, laser light at 488 nm, spot size of 1000 μm, was directed to the lesion via a slitlamp lens system.

[6] = Absorption spectrum and fluorescence profile; type: physicochemical

porfimer sodium
duration of cutaneous photosensitivity ([1]; light of 630 nm): up to 6 weeks

CC1(C)C(/C=C/C=C/C=C/C=C2\N(CCCCS(=O)(=O)O)c3ccc4ccccc4c3C2(C)C)=[N+](CCCCS(=O)(=O)[O-])c2ccc3ccccc3c21 [ICG, indocyanine green, reference compound]
binding to plasma elements (in words) [2]: binding mainly to albumin

CCOC(=O)C1=Cc2c3nc(cc4nc(cc5[n-]c(cc6[n-]c2c(C)c6CC)c(C)c5CC)C(C)=C4CC)[C@@H](C)[C@]13CC.[Cl-].[Cl-].[Sn] (racemic) [SnET2, Tin etiopurpurin]
solubility in aqueous solutions [3]: insoluble

O=C1OC2(c3ccc(O)cc3Oc3cc(O)ccc32)c2ccccc21 [fluorescein, reference compound]
binding to plasma elements (in words) [2]: not bound to plasma elements

Benzoporphyrin derivative [BPD]
solubility in aqueous solutions [3]: insoluble | duration of cutaneous photosensitivity ([1]; in vivo): a few days

CC(=O)[O-].CC(=O)[O-].CCc1c(CC)c2cc3nc(cnc4cc(OCCOCCOCCOC)c(OCCOCCOCCOC)cc4ncc4nc(cc1[n-]2)C(CCCO)=C4C)C(C)=C3CCCO.O.[Lu+3] [LuT2BET]
relative in vivo binding, HDL fraction ([2]; rabbit plasma): 49% | relative in vivo binding, LDL portion ([2]; rabbit plasma): 10.5% | relative in vivo binding, heavy proteins ([2]; rabbit plasma): 40.5% | binding to plasma elements (in words) [2]: predominantly bound to lipoproteins and to some extent albumin | normal tissue damage after fluorescence angiography (normal NZW rabbits): no evidence of normal tissue damage | concentration in plasma ([4]; 15 min): 2680 ng/mL | concentration in plasma ([4]; 30 min): 1790 ng/mL | concentration in plasma ([4]; 3 hr): 180 ng/mL | concentration in plasma ([4]; 5 h): 120 ng/mL | damage in control normal choroid or retinal tissue after PDT [5]: no damage was observed | damage to surrounding vessels or tissues after PDT [5]: No damage | closure of induced lesions after PDT ([5]; 488 nm light 30 min after injection, spot size 1000 μm): Closure of induced lesions was observed | fluorescein leakage outside the treated vessel after PDT ([5]; fluorescein angiogram after PDT): limited fluorescence leakage outside of the PDT-treated vessel | absorption bands [6]: 470 nm and 732 nm | fluorescence emission profile centre [6]: 750 nm | extinction coefficient ε ([6]; at 732 nm): 32,000 M^−1 cm^−1 | fluorescence emission FWHM ([6]; emission centered at 750 nm): 60 nm
